± gives the expanded uncertainty stated by the source.
Experiment: xn = mol fraction of the nth substance listed
Details: Liquid, Vibrating tube method

CCCCCCCCCCCC [dodecane] + CCCCCCCCCC
Details | mass density [kg/m3]
323.11 K, 10000 kPa, x2 = 0.4436 | 728 ± 3
323.11 K, 20000 kPa, x2 = 0.4436 | 735 ± 3
323.11 K, 30000 kPa, x2 = 0.4436 | 742 ± 3
323.12 K, 40000 kPa, x2 = 0.4436 | 749 ± 3
323.12 K, 60000 kPa, x2 = 0.4436 | 761 ± 3
323.12 K, 80000 kPa, x2 = 0.4436 | 771 ± 3
323.13 K, 100000 kPa, x2 = 0.4436 | 781 ± 3
323.21 K, 100 kPa, x2 = 0.6433 | 715 ± 3
323.21 K, 1000 kPa, x2 = 0.6433 | 716 ± 3
323.21 K, 5000 kPa, x2 = 0.6433 | 720 ± 3
323.21 K, 10000 kPa, x2 = 0.6433 | 724 ± 3
323.21 K, 20000 kPa, x2 = 0.6433 | 732 ± 3
323.22 K, 30000 kPa, x2 = 0.6433 | 739 ± 3
323.22 K, 40000 kPa, x2 = 0.6433 | 746 ± 3
323.22 K, 60000 kPa, x2 = 0.6433 | 757 ± 3
323.22 K, 80000 kPa, x2 = 0.6433 | 768 ± 3
323.22 K, 100000 kPa, x2 = 0.6433 | 777 ± 3
323.23 K, 5000 kPa, x2 = 0.7841 | 717 ± 3
323.24 K, 100 kPa, x2 = 0.7841 | 712 ± 3
323.24 K, 1000 kPa, x2 = 0.7841 | 713 ± 3
323.24 K, 10000 kPa, x2 = 0.7841 | 721 ± 3
323.24 K, 20000 kPa, x2 = 0.7841 | 729 ± 3
323.24 K, 30000 kPa, x2 = 0.7841 | 736 ± 3
323.24 K, 40000 kPa, x2 = 0.7841 | 743 ± 3
323.24 K, 60000 kPa, x2 = 0.7841 | 755 ± 3
323.24 K, 80000 kPa, x2 = 0.7841 | 765 ± 3
323.24 K, 99990 kPa, x2 = 0.7841 | 775 ± 3
332.74 K, 100 kPa, x2 = 0 | 720 ± 3
332.74 K, 1000 kPa, x2 = 0 | 721 ± 3
332.74 K, 5000 kPa, x2 = 0 | 725 ± 3
332.74 K, 10000 kPa, x2 = 0 | 729 ± 3
332.74 K, 20000 kPa, x2 = 0 | 737 ± 3
332.74 K, 30000 kPa, x2 = 0 | 744 ± 3
332.74 K, 40000 kPa, x2 = 0 | 750 ± 3
332.74 K, 50000 kPa, x2 = 0 | 757 ± 3
332.74 K, 60000 kPa, x2 = 0 | 762 ± 3
332.74 K, 70000 kPa, x2 = 0 | 768 ± 3
332.74 K, 80000 kPa, x2 = 0 | 773 ± 3
332.74 K, 90000 kPa, x2 = 0 | 778 ± 3
332.75 K, 100000 kPa, x2 = 0 | 782 ± 3
332.97 K, 100 kPa, x2 = 0.4436 | 712 ± 3
332.98 K, 1000 kPa, x2 = 0.4436 | 713 ± 3
332.99 K, 5000 kPa, x2 = 0.4436 | 717 ± 3
332.99 K, 10000 kPa, x2 = 0.4436 | 721 ± 3
332.99 K, 20000 kPa, x2 = 0.4436 | 729 ± 3
333 K, 100 kPa, x2 = 0.2297 | 716 ± 3
333 K, 1000 kPa, x2 = 0.2297 | 717 ± 3
333 K, 5000 kPa, x2 = 0.2297 | 720 ± 3
333 K, 30000 kPa, x2 = 0.4436 | 736 ± 3
333 K, 40000 kPa, x2 = 0.4436 | 743 ± 3
333.01 K, 10000 kPa, x2 = 0.2297 | 725 ± 3
333.01 K, 20000 kPa, x2 = 0.2297 | 733 ± 3
333.01 K, 60000 kPa, x2 = 0.4436 | 755 ± 3
333.01 K, 80000 kPa, x2 = 0.4436 | 766 ± 3
333.01 K, 100000 kPa, x2 = 0.4436 | 776 ± 3
333.02 K, 30000 kPa, x2 = 0.2297 | 740 ± 3
333.02 K, 40000 kPa, x2 = 0.2297 | 747 ± 3
333.02 K, 60000 kPa, x2 = 0.2297 | 758 ± 3
333.03 K, 80000 kPa, x2 = 0.2297 | 769 ± 3
333.03 K, 100000 kPa, x2 = 0.2297 | 779 ± 3
333.06 K, 100 kPa, x2 = 0.7841 | 705 ± 3
333.07 K, 1000 kPa, x2 = 0.7841 | 706 ± 3
333.07 K, 40000 kPa, x2 = 0.7841 | 737 ± 3
333.08 K, 5000 kPa, x2 = 0.7841 | 710 ± 3
333.08 K, 10000 kPa, x2 = 0.7841 | 714 ± 3
333.08 K, 20000 kPa, x2 = 0.7841 | 723 ± 3
333.08 K, 30000 kPa, x2 = 0.7841 | 730 ± 3
333.08 K, 60000 kPa, x2 = 0.7841 | 749 ± 3
333.08 K, 80000 kPa, x2 = 0.7841 | 760 ± 3
333.08 K, 100000 kPa, x2 = 0.7841 | 770 ± 3
333.09 K, 100 kPa, x2 = 0.6433 | 708 ± 3
333.09 K, 1000 kPa, x2 = 0.6433 | 709 ± 3
333.09 K, 5000 kPa, x2 = 0.6433 | 713 ± 3
333.09 K, 10000 kPa, x2 = 0.6433 | 717 ± 3
333.09 K, 30000 kPa, x2 = 0.6433 | 733 ± 3
333.1 K, 20000 kPa, x2 = 0.6433 | 725 ± 3
333.1 K, 40000 kPa, x2 = 0.6433 | 740 ± 3
333.1 K, 60000 kPa, x2 = 0.6433 | 752 ± 3
333.1 K, 80000 kPa, x2 = 0.6433 | 763 ± 3
333.1 K, 100000 kPa, x2 = 0.6433 | 772 ± 3
342.67 K, 100 kPa, x2 = 0 | 713 ± 3
342.67 K, 1000 kPa, x2 = 0 | 714 ± 3
342.67 K, 5000 kPa, x2 = 0 | 718 ± 3
342.67 K, 10000 kPa, x2 = 0 | 722 ± 3
342.67 K, 20000 kPa, x2 = 0 | 731 ± 3
342.67 K, 30000 kPa, x2 = 0 | 738 ± 3
342.67 K, 40000 kPa, x2 = 0 | 745 ± 3
342.67 K, 50000 kPa, x2 = 0 | 751 ± 3
342.67 K, 60000 kPa, x2 = 0 | 757 ± 3
342.67 K, 69990 kPa, x2 = 0 | 763 ± 3
342.67 K, 80000 kPa, x2 = 0 | 768 ± 3
342.67 K, 90000 kPa, x2 = 0 | 773 ± 3
342.67 K, 100000 kPa, x2 = 0 | 778 ± 3
342.92 K, 100 kPa, x2 = 0.2297 | 709 ± 3
342.92 K, 100 kPa, x2 = 0.4436 | 705 ± 3
342.92 K, 1000 kPa, x2 = 0.2297 | 710 ± 3
342.92 K, 1000 kPa, x2 = 0.4436 | 706 ± 3
342.92 K, 5000 kPa, x2 = 0.2297 | 714 ± 3
342.92 K, 5000 kPa, x2 = 0.4436 | 710 ± 3
342.92 K, 10000 kPa, x2 = 0.2297 | 718 ± 3
342.92 K, 10000 kPa, x2 = 0.4436 | 714 ± 3
342.92 K, 20000 kPa, x2 = 0.2297 | 727 ± 3
342.93 K, 100 kPa, x2 = 0.6433 | 701 ± 3
342.93 K, 1000 kPa, x2 = 0.6433 | 702 ± 3
342.93 K, 20000 kPa, x2 = 0.4436 | 723 ± 3
342.93 K, 30000 kPa, x2 = 0.2297 | 734 ± 3
342.93 K, 30000 kPa, x2 = 0.4436 | 731 ± 3
342.93 K, 40000 kPa, x2 = 0.2297 | 741 ± 3
342.93 K, 40000 kPa, x2 = 0.4436 | 738 ± 3
342.93 K, 60000 kPa, x2 = 0.2297 | 753 ± 3
342.93 K, 60000 kPa, x2 = 0.4436 | 750 ± 3
342.93 K, 80000 kPa, x2 = 0.4436 | 761 ± 3
342.93 K, 100000 kPa, x2 = 0.4436 | 771 ± 3
342.94 K, 5000 kPa, x2 = 0.6433 | 706 ± 3
342.94 K, 10000 kPa, x2 = 0.6433 | 710 ± 3
342.94 K, 20000 kPa, x2 = 0.6433 | 719 ± 3
342.94 K, 30000 kPa, x2 = 0.6433 | 727 ± 3
342.94 K, 40000 kPa, x2 = 0.6433 | 734 ± 3
342.94 K, 60000 kPa, x2 = 0.6433 | 747 ± 3

— the NIST ThermoML archive (doi:10.1016/j.fluid.2017.12.010)
